Results taken from PubChem BioAssay (NCI).
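Test compounds were applied to cells in 96-well plates for 48 hours at 5 doses. GI50: concentration for 50% inhibition of growth. The concentration for full growth arrest is given as TGI.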

Experiments:
Test in all cases: NCI tumour cell line growth inhibition, 48 h
SK-OV-3 ovarian = test system: SK-OV-3 ovarian
UACC-62 melanoma = test system: UACC-62 melanoma
SR leukemia = test system: SR leukemia
MOLT-4 leukemia = test system: MOLT-4 leukemia
MDA-MB-231 breast = test system: MDA-MB-231 breast
SK-MEL-28 melanoma = test system: SK-MEL-28 melanoma
M14 melanoma = test system: M14 melanoma
HL-60(TB) leukemia = test system: HL-60(TB) leukemia
OVCAR-8 ovarian = test system: OVCAR-8 ovarian
SF-539 CNS = test system: SF-539 CNS

| Compound | GI50 (SK-OV-3 ovarian) | TGI (SK-OV-3 ovarian) | GI50 (UACC-62 melanoma) | TGI (UACC-62 melanoma) | GI50 (SR leukemia) | TGI (SR leukemia) | GI50 (MOLT-4 leukemia) | TGI (MOLT-4 leukemia) | GI50 (MDA-MB-231 breast) | TGI (MDA-MB-231 breast) | GI50 (SK-MEL-28 melanoma) | TGI (SK-MEL-28 melanoma) | GI50 (M14 melanoma) | TGI (M14 melanoma) | GI50 (HL-60(TB) leukemia) | TGI (HL-60(TB) leukemia) | GI50 (OVCAR-8 ovarian) | TGI (OVCAR-8 ovarian) | GI50 (SF-539 CNS) | TGI (SF-539 CNS) |
| --- | --- | --- | --- | --- | --- | --- | --- | --- | --- | --- | --- | --- | --- | --- | --- | --- | --- | --- | --- | --- |
| Cc1ccc([P+](Cc2ccc([N+](=O)[O-])cc2)(c2ccc(C)cc2)c2ccc(C)cc2)cc1 | 12 µM | 25.2 µM | 1.43 µM | 6.34 µM | 2.84 µM | 12.3 µM | 5.97 µM | 29.3 µM | 1.46 µM | 7.38 µM | 2.82 µM | 12.9 µM | 2.96 µM | 12.3 µM | 0.997 µM | 3.14 µM | 2.96 µM | 13 µM | 4.06 µM | 15.9 µM |
| CC1(C)N=C(N)N=C(N)N1c1ccc(OCC(=O)Nc2cccc(S(=O)(=O)F)c2)c(Cl)c1 | – | > 100 µM | – | – | – | > 100 µM | – | > 100 µM | – | > 100 µM | – | > 100 µM | – | > 100 µM | – | > 100 µM | – | > 100 µM | – | > 100 µM |
| COc1ccc(C[C@H]2C[C@@H](O)[C@@H](C)C/C=C/Cc3cccc(O)c3C(=O)O2)cn1 | 45.6 µM | > 100 µM | 22.1 µM | 64.2 µM | 7.44 µM | 33.7 µM | 35.4 µM | > 100 µM | 16.4 µM | 39.6 µM | 27.2 µM | 78.7 µM | 18.7 µM | 36.6 µM | 15.3 µM | 38.4 µM | 29.4 µM | > 100 µM | 17.9 µM | 37.8 µM |
| COc1ccc2nc3ccc(OC)cc3c(SCCCN)c2c1 | 14.2 µM | 29.9 µM | 12 µM | 39.4 µM | 1.54 µM | 3.64 µM | 2.2 µM | 6.34 µM | 9.78 µM | 25.3 µM | 1.99 µM | 3.86 µM | 8.48 µM | 31.1 µM | 4.34 µM | 9.49 µM | 5.13 µM | 12.9 µM | 13.7 µM | 26.8 µM |
| Cc1nnc([S-])s1.[Au+].c1ccc([PH+](c2ccccc2)c2ccccc2)cc1 | – | – | 1.28 µM | 2.56 µM | 1.67 µM | > 100 µM | 2.34 µM | 6.76 µM | 1.65 µM | 3.05 µM | 1.57 µM | 2.99 µM | 1.62 µM | 3.56 µM | 1.85 µM | 5.51 µM | – | – | 1.63 µM | 3 µM |
| CCOP(=O)(OCC)/C(C#N)=C\c1cccc2ccccc12 | – | > 100 µM | – | > 100 µM | – | > 75.1 µM | – | > 100 µM | – | > 100 µM | – | > 100 µM | – | > 100 µM | – | > 62.8 µM | – | > 100 µM | – | > 100 µM |
| COc1ccccc1C(=O)c1cnc(NC2CCN(S(C)(=O)=O)CC2)nc1N | > 25 µM | > 25 µM | 6.68 µM | > 25 µM | 2 µM | > 19.5 µM | 6.43 µM | > 25 µM | 7.27 µM | > 25 µM | 6.38 µM | > 25 µM | 10.2 µM | > 25 µM | 3.96 µM | 14.3 µM | 6.97 µM | > 25 µM | 4.97 µM | 15.2 µM |
